Assay results from US20080188513A1, “1-(2-Methylpropyl)-1H-Imidazo[4,5-C](1,5]Naphthyridin-4-Amine Ethanesulfonate and 1-(2-Methylpropyl)-1H-Imidazo[4,5-C](1,5]Naphthyridin-4-Amine Methanesulfonate” (taked Pharmaceutical Company Limited, priority 2004, published 2008).
Values after ≈ are worked out from the molar mass of the structure shown. Values joined by “and” are separate entries in the source; they are usually repeats but may differ in a detail not shown here. Identical values can stand only once.

What was measured:
[1] = Aqueous solubility of the free base measured potentiometrically as a function of pH (p-SOL microtitrator); type: physicochemical; conditions: saline or isotonic, thermodynamic from solid, 0.15 M aqueous potassium chloride, potentiometric titration, read-out: intrinsic solubility (So)
Description: (§1) The aqueous solubility of 1-(2-methylpropyl)-1H-imidazo[4,5-c][1,5]naphthyridin-4-amine free base was measured potentiometrically as a function of pH. […] The titration was carried out on a sample approximately 3 mg in size. […] The pKa of 1-(2-methylpropyl)-1H-imidazo[4,5-c][1,5]naphthyridin-4-amine, determined potentiometrically in a separate experiment to be 6.1, was used in the calculation to determine the intrinsic solubility. The curve showing solubility as a function of pH for 1-(2-methylpropyl)-1H-imidazo[4,5-c][1,5]naphthyridin-4-amine free base is shown in FIG. 5.

cytokine biosynthesis = conditions: U.S. Pat. No. 6,194,425; cited from earlier work
[2] = pKa determined potentiometrically; type: physicochemical; conditions: determined potentiometrically in a separate experiment
Description: as §1

[3] = In-situ salt selection test carried out in water; type: physicochemical; conditions: for aqueous solubility (in words): summary statement; for Appearance: appearance of the resulting solution after 24 hours at 25° C., in water; for solubility at 24 h: water (salt formed in situ with aqueous acid), thermodynamic from solid
Description: Aqueous solutions (0.5 molar (M)) of ethanesulfonic acid, methanesulfonic acid, and hydrochloric acid were prepared. For ethanesulfonic acid and methanesulfonic acid, the neat acid (0.05 mol) was dissolved in water (100 mL) to prepare the solutions. Hydrochloric acid (1 normal (N)) was diluted with water to prepare 0.5 M hydrochloric acid. The free base of 1-(2-methylpropyl)-1H-imidazo[4,5-c][1,5]naphthyridin-4-amine in an amount indicated in the following Table 1 was added to a vial, and the acidic solution from the following Table 1 (1.05 equivalent) was added. The vial was capped and shaken at 25° C. in a water bath for 24 hours. The resulting salt mixture or solution was filtered through Whatman No. 5 filter paper, and 1 mL of the filtrate was diluted with methanol (10 mL) to provide a specimen for analysis. The solubility of the salt in water was determined for each specimen by analyzing for soluble salt content by reverse phase high performance liquid chromatography (HPLC) using the following method.
A diluent was prepared by dissolving phosphoric acid (1 mL of 85%) in HPLC grade water (1 L). The resulting solution was mixed in a 60:40 ratio with acetonitrile. Each specimen was diluted to a volume of 50.0 mL with the diluent to provide a sample having a concentration of less than or equal to (≦) 50 micrograms per milliliter (μg/mL).
An external standard was prepared by dissolving 1-(2-methylpropyl)-1H-imidazo[4,5-c][1,5]naphthyridin-4-amine free base (25 mg) in methanol (30 mL) with the aid of sonication and then diluting to a volume of 50.0 mL with methanol to provide a stock solution. Diluent was added to 5 mL of the stock solution to a volume of 50.0 mL.
A Waters LC Module 1 HPLC system equipped with an autosampler, a reproducible injector, a UV detector (326 nm wavelength), and Turbochrom data acquisition software was used with a ZORBAX Bonus-RP C14, 15 cm×4.6 mm column with 5 μm packing. The mobile phase was prepared by dissolving 1-octanesulfonate, sodium salt (2.00 g) and phosphoric acid (1 mL of 85%) in HPLC grade water (1 L) and mixing the resulting solution in a 65:35 ratio with HPLC grade acetonitrile. A flow rate of 1.0 mL/min was used.
The column was equilibrated with the mobile phase, and the system was tested using six 20 μL injections of the external standard to ensure that the relative standard deviation for the peak areas was less than or equal to (≦) 1.5%. An injection of each sample (20 μL) was tested in comparison to a standard. The concentration, in percentage, of 1-(2-methylpropyl)-1H-imidazo[4,5-c][1,5]naphthyridin-4-amine in solution was then calculated using the following operation: {[peak area of the sample/weight of the sample (mg)]/[peak area of the standard/weight of the standard (mg)]average}×100. The solubility of the salt, presented in the following Table 1, can then be calculated using the equations presented by Tong, W. Q., and Whitesell, G, Pharmaceutical Development and Technology, 3(2), pp. 215-223 (1998).

[4] = In-situ salt selection test carried out in water with a cosolvent; type: physicochemical; conditions: 25 °C, aqueous with cosolvent or surfactant or cyclodextrin, thermodynamic from solid, final acid concentration 0.05 M
[5] = system: interferon (α) and tumor necrosis factor (α) secreted by peripheral blood mononuclear cells (PBMC); assay: Cytokine induction in human cells (PBMC); type: cell-based; conditions: 18 to 24 hours, 30-0.014 μM
Text: An in vitro human blood cell system is used to assess cytokine induction. Activity is based on the measurement of interferon (α) and tumor necrosis factor (α) (IFN and TNF, respectively) secreted into culture media as described by Testerman et al. in “Cytokine Induction by the Immunomodulators Imiquimod and S-27609,” Journal of Leukocyte Biology, 58, 365-372 (September, 1995).
Whole blood from healthy human donors is collected by venipuncture into EDTA vacutainer tubes. Peripheral blood mononuclear cells (PBMC) are separated from whole blood by density gradient centrifugation using HISTOPAQUE-1077. […]
Following incubation the plates are centrifuged for 10 minutes at 1000 revolutions per minute (rpm) (approximately 200×g) at 4° C. […] The samples are analyzed for interferon (α) by ELISA and for tumor necrosis factor (α) by ELISA or IGEN Assay.
Interferon (α) concentration is determined by ELISA using a Human Multi-Species kit from PBL Biomedical Laboratories, New Brunswick, N.J. Results are expressed in pg/mL.
Tumor necrosis factor (α) (TNF) concentration is determined using ELISA kits available from Biosource International, Camarillo, Calif. Alternately, the TNF concentration can be determined by ORIGEN M-Series Immunoassay and read on an IGEN M-8 analyzer from IGEN International, Gaithersburg, Md. […]

[6] = Physical and chemical stability in solid form; type: physicochemical
[7] = 5% (w/w) diethylene glycol monoethyl ether in water
[8] = 5% (w/w) propylene glycol in water
[9] = salt formed in situ in water, shaken at 25° C. for 24 hours, filtrate by HPLC

melting point | solubility [1] | pKa [2] | aqueous solubility (in words) [3] | solubility at 24 h [4, 7] | solubility at 24 h [4, 8] | Appearance [3] | solubility at 24 h [3, 9] | solubility [3, 9] | Structure (SMILES) | ability to induce cytokine biosynthesis (cytokine biosynthesis) | induction of interferon α and/or tumor necrosis factor α production [5] | physical and chemical stability in solid form [6]
221.5 to 223.4 °C and 220 to 221 °C | – | – | – | – | – | – | – | – | CC(C)Cn1cnc2c(N)nc3cccnc3c21.CCS(=O)(=O)O.O (hydrate or solvate) | – | – | –
– | 0.003 mg/mL (≈ 12.4 µM) | 6.1 | particularly low aqueous solubility | – | – | – | – | – | CC(C)Cn1cnc2c(N)nc3cccnc3c21 [1-(2-methylpropyl)-1H-imidazo[4,5-c][1,5]naphthyridin-4-amine] | ability to induce cytokine biosynthesis | – | –
– | – | – | good aqueous solubility | 10.5 mg/mL | > 10.1 mg/mL | Clear | 24.4 mg/mL | – | CC(C)Cn1cnc2c(N)nc3cccnc3c21.CCS(=O)(=O)O [Ethanesulfonic, 1-(2-methylpropyl)-1H-imidazo[4,5-c][1,5]naphthyridin-4-amine ethanesulfonate] | – | inducing the production of interferon α and/or tumor necrosis factor α | good physical and chemical stability in solid form
– | – | – | low aqueous solubility | – | – | Milky, | – | 0.39 mg/mL | CC(C)Cn1cnc2c(N)nc3cccnc3c21.Cl [Hydrochloric, hydrochloride salt of 1-(2-methylpropyl)-1H-imidazo[4,5-c][1,5]naphthyridin-4-amine, reference compound] | – | – | –
– | – | – | good aqueous solubility | 10.5 mg/mL | 10.3 mg/mL | Translucent | 15.2 mg/mL | – | CC(C)Cn1cnc2c(N)nc3cccnc3c21.CS(=O)(=O)O [Methanesulfonic, 1-(2-methylpropyl)-1H-imidazo[4,5-c][1,5]naphthyridin-4-amine methanesulfonate] | – | – | good physical and chemical stability in solid form
